Where two headings read alike, the source gives them in different places.
Molecular target: T1, FmlHLD (Escherichia coli, UniProt Q1RBS0)
T1 sequence (Q1RBS0 25-184): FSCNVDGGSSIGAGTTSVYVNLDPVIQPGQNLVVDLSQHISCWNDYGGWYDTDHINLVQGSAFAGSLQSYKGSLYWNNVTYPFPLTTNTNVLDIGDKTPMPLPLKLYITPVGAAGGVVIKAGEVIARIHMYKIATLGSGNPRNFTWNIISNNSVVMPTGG
Format: binding, Escherichia coli (UPEC strain UTI89)
Conditions: for Percent inhibition (PI100) of FmlHLD binding to ds-BSM: mean with SEM in Table S2

[1] = Fig. 1B: 1 mM or 0.1 mM compounds

CC(=O)N[C@H]1C(O)O[C@H](CO)[C@H](O)[C@@H]1O (mixture of isomers) [GalNAc, N-acetylgalactosamine, reference compound]
Inhibition of FmlHLD binding to ds-BSM (in words) (compound at 1 mM): capable of inhibiting FmlHLD

OC[C@H]1O[C@@H](Oc2ccccc2)[C@H](O)[C@@H](O)[C@H]1O [1β, phenyl β-galactoside]
Percent inhibition (PI100) of FmlHLD binding to ds-BSM (compound at 100 μM, 100 µM): 77%

O=c1ccc2nc3ccc(O[C@@H]4O[C@H](CO)[C@H](O)[C@H](O)[C@H]4O)cc3oc-2c1 [15β]
Percent inhibition (PI100) of FmlHLD binding to ds-BSM (compound at 100 μM, 100 µM): 80%

OC[C@H]1O[C@@H](Oc2cc3c(O)cc(O)cc3[o+]c2-c2ccc(O)c(O)c2)[C@H](O)[C@@H](O)[C@H]1O [24β, cyanidin galactoside]
Percent inhibition (PI100) of FmlHLD binding to ds-BSM (compound at 100 μM, 100 µM): 29%

COc1cc(-c2[o+]c3cc(O)cc(O)c3cc2O[C@@H]2O[C@H](CO)[C@H](O)[C@H](O)[C@H]2O)ccc1O [25β]
Percent inhibition (PI100) of FmlHLD binding to ds-BSM (compound at 100 μM): 3.6%

O=c1c(O[C@@H]2O[C@H](CO)[C@H](O)[C@H](O)[C@H]2O)c(-c2ccc(O)c(O)c2)oc2cc(O)cc(O)c12 [26β, quercetin galactoside]
Percent inhibition (PI100) of FmlHLD binding to ds-BSM (compound at 100 μM, 100 µM): 14%

CC(C)S[C@@H]1O[C@H](CO)[C@H](O)[C@H](O)[C@H]1O [36β-thio, isopropyl β-thiogalactoside, reference compound]
Inhibition of FmlHLD binding to ds-BSM (in words) (compound at 100 μM): minor inhibitory activity

O=C[C@H](O)[C@@H](O)[C@@H](O)[C@H](O)CO [Gal, galactose, reference compound]
Inhibition of FmlHLD binding to ds-BSM (in words) (compound at 1 mM): capable of inhibiting FmlHLD

OC[C@H]1OC(O)[C@H](O)[C@@H](O)[C@@H]1O (stereo partly drawn) [Glc, glucose, reference compound]
Inhibition of FmlHLD binding to ds-BSM (in words) [1]: neither Man nor glucose (Glc) had any detectable effect

OC[C@H]1O[C@@H](O[C@H]2[C@H](O)[C@@H](O)C(O)O[C@@H]2CO)[C@H](O)[C@@H](O)[C@H]1O (stereo partly drawn) [Lac, Gal(β1-4)Glc, reference compound]
Inhibition of FmlHLD binding to ds-BSM (in words) [1]: incapable of inhibiting FmlHLD

OC[C@H]1OC(O)[C@@H](O)[C@@H](O)[C@@H]1O (stereo partly drawn) [Man, mannose, reference compound]
Inhibition of FmlHLD binding to ds-BSM (in words) [1]: neither Man nor glucose (Glc) had any detectable effect

CC(=O)N[C@@H]1[C@@H](O[C@@H]2O[C@H](CO)[C@H](O)[C@H](O)[C@H]2O)[C@@H](O)[C@@H](CO)O[C@@H]1O [TF, Gal(β1-3)GalNAc(α), reference compound]
Inhibition of FmlHLD binding to ds-BSM (in words) (compound at 1 mM): capable of inhibiting FmlHLD
